According to US5885786A, “Methods for screening of substances for inhibition of multidrug resistance” (priority 1996, dated 1999):
“Also recorded” adds a separate entry of the source. Counter-ions that a name gives are not always drawn. Like-named read-outs stand apart in the source and are kept apart here.

How the values were obtained:
PKC = conditions: Sachs et al., 1995; cited from earlier work
[1] = tested on: MCF-7-doxorubicin resistant cells; conditions: Sachs et al., 1995; cited from earlier work
[2] = tested on: K562 erytiroleukemia cells; conditions: Yan et al., 1995; cited from earlier work
MCF-7-AdrR cells [3] = assay: Cell proliferation (MTS) assay: adriamycin toxicity and chemosensitization
Excerpt: FIG. 15A and FIG. 15B. […] FIG. 15B: Glycosylceramide levels in MDR Cells following drug treatment. […] In order to avoid differences in [^3 H]glycosylceramide values which account for cell death, the same amount of total radioactive lipid from each sample was applied to TLC separation.
FIG. 16A and FIG. 16B. […] FIG. 16A: Effect of PPMP on cellular glycosylceramide levels. […] [^3 H]Glycosylceramide was quantitated as described in the legend to FIG. 9.
Vehicle (acetone, ethanol) was always added to control (minus drug) wells. The cytotoxic activity of a drug was determined using the Promega CellTiter 96™ AQueous MTS cell proliferation assay kit. Each experimental point was performed in six replicates. MTS/PMS solution (20 μl/well) was aliquoted into all wells, and the cells were incubated for 2-3 h, or until an O.D. of 0.9-1.0 was obtained as a highest reading. Thereafter, absorbence at 490 nm was recorded using an ELISA plate reader (Molecular Devices, San Diego, Calif.).

[4] = tested on: glycosylceramide synthesis in MCF-7-AdrR cells; assay: Glycosylceramide levels in MDR cells following drug treatment, [3H]serine 48 h; type: cell-based; conditions: read-out: diminution in glycosylceramide formation, adriamycin alone
[5] = tested on: OVCAR-3 (MDR ovarian carcinoma); conditions: clinically relevant concentrations (Rogan et al., 1984); cited from earlier work
[6] = cited from earlier work
MCF-7-AdrR cells [7] = assay: Metabolism of sphinganine, MCF-7-AdrR cells (TLC charring); type: cell-based; conditions: 5.0 μM sphinganine:BSA, FIG. 4
Description: (§1) FIG. 4. Metabolism of sphinganine by MCF-7-wt and MCF-7-AdrR cells. Cells, in 100×20 mm culture dishes, were incubated with 5.0 μM sphinganine:BSA (prepared at a 1:1 molar ratio) for the times indicated. Lipids were extracted, a 100 μg lipid aliquot of each sample was resolved by TLC in solvent system II, and the TLC was charred as described in Example I. The data shown are representative of two independent experiments which gave similar results.
(§2) Lipid Mass Analysis--Cell lipids were analyzed by TLC separation and charring of the chromatogram. Briefly, total cellular lipids were extracted by the method of Bligh and Dyer (1959), and equal aliquots (by weight) from each sample were spotted on TLC plates. The plates were developed using solvent system I or II (see below), air-dried for 1 h and sprayed using a 35% solution of sulfuric acid in water. The lipids were charred by heating in an oven at 180° C. for 30 min, and resulting black bands were visualized and photographed. Bands can be further quantitated by photodensitometric scanning.

MCF-7-wt cells = assay: Metabolism of sphinganine, MCF-7-wt cells (TLC charring); type: cell-based; conditions: 5.0 μM sphinganine:BSA, FIG. 4
Description: as §1, §2

[8] = tested on: lymphomas, particularly Hodgkin's disease; conditions: cited from earlier work
[9] = in vivo; cited from earlier work
[10] = tested on: chronic myelogenous leukemia; conditions: previously untreated chronic myelogenous leukemia; cited from earlier work
P388 and U937 cells = conditions: Bose et al., 1995; cited from earlier work
certain animal tumors = conditions: in vivo; cited from earlier work

## CCCCCCCCCCCCCCC[C@H](O)[C@@H](N)CO [safingol]
PKC
  inhibition of PKC activity (in words): inhibition of PKC activity
[1]
  reversal of MDR (in words): reversal of MDR

## Cc1cn([C@H]2C[C@H](N=[N+]=[N-])[C@@H](CO)O2)c(=O)[nH]c1=O [3'-azidothymidine]
[2]
  sphingoglycolipid metabolism (in words): altered sphingoglycolipid metabolism

## COc1cccc2c1C(=O)c1c(O)c3c(c(O)c1C2=O)C[C@@](O)(C(=O)CO)C[C@@H]3O[C@H]1C[C@H](N)[C@H](O)[C@H](C)O1 [adriamycin, 5,12-Naphthacenedione, (8s-cis)-10-[(3-amino-2,3,6-trideoxy-a-L-lyxo-hexopyranosyl)oxy]-7,8,9,10-tetrahydro-6,8,11-trihydroxy-8-(hydroxyacetyl)-1-methoxy-hydrochloride]
MCF-7-AdrR cells [3]; 5 μM adriamycin + 5.0 μM tamoxifen, 72 h, FIG. 15A
  cell death, adriamycin in the presence of tamoxifen: 60%
MCF-7-AdrR cells [3]; Homo sapiens, 72 h, read-out: cell death, adriamycin alone (maximal cytotoxic effect)
  cytotoxicity at 5 µM: 28%
MCF-7-AdrR cells [3]; MCF-7-AdrR, alone
  effect of the substance alone on cell survival (in words): minor effect; also recorded: largely without influence
[4]
  inhibition at 2.5 µM: 17%
[5]
  resistance of OVCAR-3 to the drug (in words): resistant
[6]; in vivo, iv
  elimination half-life: about 30 hr
[6]; in vivo
  excreted into the urine: a few percent
[6]; oral or unspecified
  absorption (in words): absorbed poorly

## CCCCCCCCCCCCCCC[C@@H](O)[C@@H](N)CO [sphinganine]
MCF-7-AdrR cells [7]
  glycosylceramide (lipid-1 and -2) synthesis/mass on sphinganine supplement, MCF-7-AdrR (in words): accelerated synthesis; also recorded: strikingly more pronounced
MCF-7-wt cells
  synthesis of lipid X, MCF-7-wt (in words): synthesis of lipid X increased

## CC[C@]1(O)C[C@@H]2CN(CCc3c([nH]c4ccccc34)[C@@](C(=O)OC)(c3cc4c(cc3OC)N(C)[C@H]3[C@@](O)(C(=O)OC)[C@H](OC(C)=O)[C@]5(CC)C=CCN6CC[C@]43[C@@H]65)C2)C1 [vinblastine]
[8]
  significant improvement: 50 to 90 % of cases
[6]; in vivo, iv
  half-life of disappearance from plasma, first: approximately 1 hours
  half-life of disappearance from plasma, second: ~20 h
[6]; in vivo
  Cmax: ~400 µM
  distribution in blood cells (in words): extensively concentrated in platelets
  plasma protein binding (in words): bind to plasma proteins
[9]
  tolerability / toxicity (in words): painful irritation and ulceration

## CS(=O)(=O)OCCCCOS(C)(=O)=O [Busulfan, 1,4-butanediol dimethanesulfonate]
[10]
  hematologic remission: Approximately 90 % of adults

## COc1cccc2c1C(=O)c1c(O)c3c(c(O)c1C2=O)C[C@@](O)(C(C)=O)C[C@@H]3O[C@H]1C[C@H](N)[C@H](O)[C@H](C)O1 [daunorubicin, 5,12-Naphthacenedione, (8S-cis)-8-acetyl-10-[(3-amino-2,3,6-trideoxy-a-L-lyxo-hexanopyranosyl)oxy]-7,8,9,10-tetrahydro-6,8,11-trihydroxy-10-methoxy-, hydrochloride]
P388 and U937 cells
  ceramide elevation (in words): stimulates ceramide elevation
[6]; in vivo, iv
  distribution half-life: 45 min
  elimination half-life: about 19 hr
  secreted into the bile: ~40%
[6]; in vivo, po
  absorption (in words): poor

## N[C@H](Cc1ccc(N(CCCl)CCCl)cc1)C(=O)O [medphalan]
Certain animal tumors
  activity against certain animal tumors relative to L-isomer (in words): less active
